Where no end group is shown, it is not given here.
What was measured:
C. albicans FRR 5580 = format: cell-based, Candida albicans; settings: PDB, overnight; mode of three independent experiments
Experimental: The assay was carried out as per Alfred et al.. Candida albicans (FRR 5580) was grown in potato dextrose broth (PDB; Difco-BD, Bergen County, NJ, USA) overnight at 30 °C with shaking (200 rpm) until exponential phase, then adjusted to 0.5 McFarland turbidity standard (approximately 1 × 10^6 cells/mL) and diluted 1:200 with PDB to 0.5 − 2 × 10^3 cells/mL. Peptides in 25 μL volumes were mixed with 75 μL of the yeast suspensions. The controls were included as above. The plates were incubated overnight and absorbance was recorded. All the tests were conducted in triplicate.

E. coli and S. aureus = assay: Salt tolerance (MICs under 0-150 mM NaCl, summary); format: cell-based, Escherichia coli; Staphylococcus aureus; design: key: Up to 50 mM: no effects on antibacterial activity up to 50 mM NaCl but increase in the MICs for E. coli and S. aureus at 100 mM NaCl; Intolerant: not resistant to salt effects even at 50 mM NaCl; Up to 150 mM: no effects on antibacterial activity up to 150 mM NaCl; settings: MICs for E. coli and S. aureus in MHB with 0, 50, 100 or 150 mM NaCl
Experimental: (§1) The activity of peptides was determined against the Gram-positive Staphylococcus aureus (ATCC 25923), and the Gram-negative Escherichia coli (ATCC 25922) and Pseudomonas aeruginosa (ATCC 9027) bacteria. Selected peptides were also tested against two clinical isolates of methicillin-resistant Staphylococcus aureus (MRSA), M173525 and M180920, kindly provided by Dr P. B. Ward (Microbiology Department, Austin and Repatriation Medical Centre, Heidelberg West, Victoria, Australia). The Minimum inhibitory concentration (MIC) of peptides was determined by the microtitre broth dilution method, as described in Phillips et al.. Briefly, bacteria were grown in Mueller-Hinton Broth (MHB) at 37 °C overnight with shaking (200 rpm). The cultures were adjusted to 0.5 McFarland turbidity standard (approximately 1 × 10^8 colony forming units (CFU)/mL), then diluted 1:100 in MHB (1 × 10^6 CFU/mL). A total of 75 μL of these suspensions were mixed with 25 μL of peptide solutions (final concentrations 250 to 0.5 μg/mL) and the microtitre plates incubated overnight at 37 °C. Positive growth controls (inoculum and MHB, with no peptide) and sterility controls (0.01% glacial acetic) were also included. Post-incubations, the absorbance of cultures at 595 nm was measured using a microplate reader (POLARstar Omega, Germany). […] To evaluate salt sensitivity of peptides up to physiological levels (150 mM NaCl), overnight cultures of S. aureus and E. coli adjusted to 0.5 McFarland turbidity standard were diluted 1:100 in MHB containing 0, 50, 100 or 150 mM NaCl, and the MICs of peptides determined as above. All tests were conducted in triplicate. The results are shown as the mode of values obtained.

P. aeruginosa ATCC9027 = format: cell-based, Pseudomonas aeruginosa; settings: MHB, 37 °C overnight, A595; mode of three independent experiments
Experimental: as §1

NIH-3T3 cells = assay: Cytotoxicity, MTT assay; format: cell-based, mouse; settings: 24 h, peptide up to 250 µg/mL, concentration causing 50% cell growth inhibition, mean of triplicate assays
Experimental: (§2) Cytotoxicity to human cervical carcinoma HeLa cells and mouse fibroblastic NIH-3T3 cells was determined using the MTT assay as per Scudiero et al. with minor modifications. The cells were maintained in Dulbecco’s Modified Eagle Medium (DMEM) with 10% foetal bovine serum (FBS) and 1% penicillin G in a humidified incubator (Heraeus Hera Cell incubator) at 37 °C with 5% CO2. They were seeded in 96-well microtiter plates at 1 × 10^4 cells/well and allowed to adhere for 24 h in the incubator. The medium was removed, and adherent cells were washed with PBS. Fresh media containing serially diluted peptides in PBS (final concentrations 4 to 250 µg/mL) were added and the cells incubated for 24 h. Cells without peptides were used as negative controls. Following incubations, the medium was removed, and adherent cells were washed with PBS. 150 µL of MTT (diluted to 0.33 mg/mL in DMEM) and the plates incubated for 3 h. The precipitated formazan was dissolved in 100 µL of DMSO and its absorbance measured at 570 nm. Cell viability was determined as: (OD570 nm peptide treated cells/(OD570 nm untreated cells) × 100. Positive cytotoxicity was defined as peptide concentration that causes 50% growth inhibition in a cell line (IC50). All tests were carried out in triplicate.

S. aureus ATCC25923 = format: cell-based, Staphylococcus aureus; settings: MHB; for MIC S. aureus, No NaCl: 0 mM NaCl; for MIC S. aureus, No NaCl / MIC S. aureus, With 50mM NaCl / MIC S. aureus, With 100mM NaCl / MIC S. aureus, With 150mM NaCl: triplicate, mode; for MIC S. aureus ATCC25923: 37 °C overnight, A595, mode of three independent experiments
Experimental: as §1

[1] = test system: porcine trypsin and proteinase K; assay: Proteases stability assay; format: in vitro ADME, porcine; Tritirachium album; settings: 1000 µg peptide with 50 µg protease (20:1 w/w), porcine trypsin or proteinase K, PBS pH 7.4, 37 °C, 3 h; read-out activity of supernatant on E. coli and S. aureus; triplicate
Experimental: The effect of two well-studied proteases, porcine trypsin and proteinase K from Tritirachium album, on the activity of peptides was investigated as per Carmona et al.. Briefly, 1000 µg of a peptide was incubated with 50 µg of a protease (20:1 w/w) at 37 °C for 3 h in phosphate buffered saline PBS (pH 7.4). The enzyme activity was then terminated by heating (70 °C, 5 min) and the samples centrifuged at 12,000× g. The activity of the supernatant on E. coli and S. aureus was tested as above, in triplicate.

HeLa cells = format: cell-based, human; settings: MTT, 24 h, peptide up to 250 µg/mL; concentration causing 50% cell growth inhibition; mean of triplicate assays
Experimental: as §2

E. coli ATCC25922 = format: cell-based, Escherichia coli; settings: MHB; for MIC E. coli, No NaCl: 0 mM NaCl; for MIC E. coli, No NaCl / MIC E. coli, With 50mM NaCl / MIC E. coli, With 100mM NaCl / MIC E. coli, With 150mM NaCl: triplicate, mode; for MIC E. coli ATCC25922: 37 °C overnight, A595, mode of three independent experiments
Experimental: as §1

Compound: RWWKWWK-NH2 [Peptide R7]
- MIC C. albicans FRR 5580 (C. albicans FRR 5580): 64 µg/mL
- Salt Tolerance (E. coli and S. aureus): Intolerant
- MIC P. aeruginosa ATCC9027 (P. aeruginosa ATCC9027): 32 µg/mL
- IC50 NIH-3T3 (NIH-3T3 cells): 250 µg/mL
- MIC S. aureus, No NaCl (S. aureus ATCC25923): 16 µg/mL
- MIC S. aureus, With 50mM NaCl (S. aureus ATCC25923): 32 µg/mL
- MIC S. aureus, With 100mM NaCl (S. aureus ATCC25923): 250 µg/mL
- MIC S. aureus, With 150mM NaCl (S. aureus ATCC25923): > 250 µg/mL
- MIC S. aureus ATCC25923 (S. aureus ATCC25923): 16 µg/mL
- Protease Stability [1]: Unstable
- IC50 HeLa (HeLa cells): >250 µg/mL
- MIC E. coli, No NaCl (E. coli ATCC25922): 8 µg/mL
- MIC E. coli, With 50mM NaCl (E. coli ATCC25922): 32 µg/mL
- MIC E. coli, With 100mM NaCl (E. coli ATCC25922): 250 µg/mL
- MIC E. coli, With 150mM NaCl (E. coli ATCC25922): > 250 µg/mL
- MIC E. coli ATCC25922 (E. coli ATCC25922): 8 µg/mL

Compound: WWRWWKWW-NH2 [dWW, diastereomeric counterpart of WW]
- MIC C. albicans FRR 5580 (C. albicans FRR 5580): 64 µg/mL
- Salt Tolerance (E. coli and S. aureus): Up to 150 mM
- MIC P. aeruginosa ATCC9027 (P. aeruginosa ATCC9027): 32 µg/mL
- IC50 NIH-3T3 (NIH-3T3 cells): 250 µg/mL
- MIC S. aureus, No NaCl (S. aureus ATCC25923): 8 µg/mL
- MIC S. aureus, With 50mM NaCl (S. aureus ATCC25923): 8 µg/mL
- MIC S. aureus, With 100mM NaCl (S. aureus ATCC25923): 8 µg/mL
- MIC S. aureus, With 150mM NaCl (S. aureus ATCC25923): 8 µg/mL
- MIC S. aureus ATCC25923 (S. aureus ATCC25923): 8 µg/mL
- IC50 HeLa (HeLa cells): 125 µg/mL
- MIC E. coli, No NaCl (E. coli ATCC25922): 8 µg/mL
- MIC E. coli, With 50mM NaCl (E. coli ATCC25922): 8 µg/mL
- MIC E. coli, With 100mM NaCl (E. coli ATCC25922): 8 µg/mL
- MIC E. coli, With 150mM NaCl (E. coli ATCC25922): 8 µg/mL
- MIC E. coli ATCC25922 (E. coli ATCC25922): 8 µg/mL

Compound: RKRWWRWWKWWKR-NH2 [dP1, diastereomeric counterpart of P1]
- MIC C. albicans FRR 5580 (C. albicans FRR 5580): 64 µg/mL
- Salt Tolerance (E. coli and S. aureus): Up to 150 mM
- MIC P. aeruginosa ATCC9027 (P. aeruginosa ATCC9027): 16 µg/mL
- IC50 NIH-3T3 (NIH-3T3 cells): 250 µg/mL
- MIC S. aureus, No NaCl (S. aureus ATCC25923): 16 µg/mL
- MIC S. aureus, With 50mM NaCl (S. aureus ATCC25923): 16 µg/mL
- MIC S. aureus, With 100mM NaCl (S. aureus ATCC25923): 16 µg/mL
- MIC S. aureus, With 150mM NaCl (S. aureus ATCC25923): 16 µg/mL
- IC50 HeLa (HeLa cells): 125 µg/mL
- MIC E. coli, No NaCl (E. coli ATCC25922): 16 µg/mL
- MIC E. coli, With 50mM NaCl (E. coli ATCC25922): 16 µg/mL
- MIC E. coli, With 100mM NaCl (E. coli ATCC25922): 16 µg/mL
- MIC E. coli, With 150mM NaCl (E. coli ATCC25922): 16 µg/mL

Compound: CC(C)[C@H](NC(=O)[C@@H]1CCCN1C(=O)[C@@H](N)Cc1ccccc1)C(=O)N[C@H](C(=O)N[C@@H](Cc1c[nH]c2ccccc12)C(=O)N[C@@H](CCCNC(=N)N)C(=O)N[C@@H](Cc1c[nH]c2ccccc12)C(=O)N[C@@H](Cc1c[nH]c2ccccc12)C(=O)N[C@@H](CCCCN)C(=O)N[C@@H](Cc1c[nH]c2ccccc12)C(=O)N[C@@H](Cc1c[nH]c2ccccc12)C(=O)N[C@@H](CCCCN)C(=O)NCC(=O)NCCCC[C@@H](NC(=O)CNC(=O)[C@H](CCCCN)NC(=O)[C@H](Cc1c[nH]c2ccccc12)NC(=O)[C@H](Cc1c[nH]c2ccccc12)NC(=O)[C@H](CCCCN)NC(=O)[C@H](Cc1c[nH]c2ccccc12)NC(=O)[C@H](Cc1c[nH]c2ccccc12)NC(=O)[C@H](CCCNC(=N)N)NC(=O)[C@H](Cc1c[nH]c2ccccc12)NC(=O)[C@@H](NC(=O)[C@@H](NC(=O)[C@@H]1CCCN1C(=O)[C@@H](N)Cc1ccccc1)C(C)C)[C@@H](C)O)C(N)=O)[C@@H](C)O [Di-PuroA]
- Salt Tolerance (E. coli and S. aureus): Intolerant
- Protease Stability [1]: Unstable
